Laboratory results published in patent US20120321584A1, “PROCESSES FOR PREPARING AMINE SALTS OF KMUP-3 AND USE THEREOF” (KAOHSIUNG MEDICAL UNIVERSITY, priority 2011, published 2012).
Counter-ions that a name gives are not always drawn.

Assays:
[1] = test system: electrically-stimulated left atria; experiment: Electrically-stimulated beating left atrium, organ bath; format: cell-based, guinea-pig; details: for Effect of pretreatment on KMUP-3-induced contractility: sGC inhibitor ODQ, eNOS inhibitor L-NAME
Description: (§1) Organ bath experiments and tissue procurement. Guinea-pigs were killed by a blow on the head. Their hearts were quickly excised and trimmed of excess tissues. The atrium was carefully removed and placed at room temperature (20˜25° C.) in a Krebs solution of the following composition (mM): NaCl 113, KCl 4.8, CaCl2 2.2, KH2PO4 1.2, MgCl2 1.2, NaHCO3 25, dextrose 11.0; bubbled with a 95% O2+5% CO2 mixture, followed by separation of right and left atrium for subsequent experiments.
Quiescent left atria free of connective tissues were dissected and mounted in an organ bath under a resting tension of 0.5 g. Organs were bathed at 32.5° C. in aerated Krebs solution and electrically stimulated with 1 Hz at […] via two platinum electrodes placed at either side. The positive inotropic effect was measured by determining the cumulative concentration-response curves in the presence of KMUP-3 or KMUP-3 amine salt (0.1, 1.0, 10, 100 μM). To examine the possible involvement of NO and cAMP/cGMP in the action of KMUP-3 or KMUP-3 amine salt on electrically-stimulated beating atria, pre-incubated with a ROCK inhibitor Y27632 (1.0 μM), a β-adrenoceptor blocker propranolol (1.0 μM), eNOS inhibitors L-NAME (100 μM), 7-nitroindazole (100 μM) and 5-HT inhibitor ketanserin (1.0 μM) was performed for 15 min prior to the addition of KMUP-3 or KMUP-3 amine salt to measure the development of beating force and heart rate for 10 min.

[2] = test system: isolated spontaneously beating right atrium; experiment: Spontaneously beating right atrium, organ bath; format: cell-based, guinea-pig; details: atropine 1 μM; 7-nitroindazole 100 μM
Description: as §1
Spontaneously beating right atrium was dissected from the heart and mounted in a 10 ml organ bath with one end fixed and the other end connected to a force displacement transducer (Grass, Model FT03). The frequency of contraction was measured on a separate channel by a tachometer (Coulbourn, Model S77-26) connected to a high-speed videograph (Coulbourn, AT L19-69). These experiments were carried out at 32.5° C. in Krebs solution. The atria strip was pre-stretched to a baseline tension of 0.5 g and equilibrated for 90 min in aerated (95% O2+5% CO2) Krebs solution before the experimental protocols were initiated. The atria were then allowed a 30-60 min washout period to re-stabilize. KMUP-3 or KMUP-3 amine salt (0.1, 1.0, 10, 100 μM) were then cumulatively added to the organ bath. […]

[3] = test system: ROCKII; experiment: Protein expression of ROCKII by optical density after KMUPs salts (Table 2); format: cell-based; details: KMUPs salts 10 μM, 120 min; vehicle (without treatment) = 100 %
Description: (§2) Protein extraction and Western blotting analysis. Briefly, after incubation with test agents in an organ bath, isolated beating atrium was frozen and pulverized to a fine powder at the temperature of liquid nitrogen. Atrium powders were then homogenized in protein extraction reagent (Pierce Biotechnology, Inc., Rockford, Ill.) by sonication. The samples were sonicated 10 sec three times and centrifuged at 13,000 rpm at 4° C. for 30 min. The protein concentrations of supernatants were determined by using bovine serum albumin as the standard. The cell extracts were then boiled in a ratio of 4:1 with sample buffer (Tris 100 mM, pH 6.8; glycerol 20%, Sodium dodecyl sulfate (SDS) 4% and bromophenol blue 0.2%). Electrophoresis was performed using 10% SDS-PAGE and transferred to nitrocellulose membranes (Millipore Corp., Billerica, Mass.). The membrane was blocked with Tris-buffered saline (TBS; 20 mM Tris and 137 mM NaCl, pH 7.6) containing 0.1% Tween 20 (TTBS) and 5% nonfat milk at room temperature for 1 h, washed with TTBS, and then incubated overnight at 4° C. in the appropriate primary antibody for PKARI, RhoA, ROCKII, p-CIP-17, CPI-17 and PKG1α1β. […] The intensity of the bands was measured by densitometry. eNOS or phosphorylated eNOS were extracted from cell culture of neonatal myocytes, PA ring and aortic ring (2-3 mm) of rats and measured by Western blotting analysis.

[4] = test system: PDE-3; experiment: Protein expression of PDE-3 by optical density after KMUPs salts (Table 2); format: cell-based; details: KMUPs salts 10 μM, 120 min; vehicle (without treatment) = 100 %
Description: as §2

[5] = test system: PDE-5; experiment: Protein expression of PDE-5 by optical density after KMUPs salts (Table 2); format: cell-based; details: KMUPs salts 10 μM, 120 min; vehicle (without treatment) = 100 %
Description: as §2

[6] = test system: eNOS; experiment: Protein expression of eNOS by optical density after KMUPs salts (Table 2); format: cell-based; details: KMUPs salts 10 μM, 120 min; vehicle (without treatment) = 100 %
Description: as §2

[7] = test system: PDE-4; experiment: Protein expression of PDE-4 by optical density after KMUPs salts (Table 2); format: cell-based; details: KMUPs salts 10 μM, 120 min; vehicle (without treatment) = 100 %
Description: as §2

[8] = test system: L-type Ca2+ channels; experiment: Ca2+ entry currents in H9c2 cells, whole cell patch-clamp; format: cell-based, rat; details: KMUP-3 10 μM with KT5823 3 μM or Y27642 50 μM
Description: To measure the ICa through L-type Ca^2+ channels, whole cell patch-clamp electrophysiology was used in rat heart-derived H9c2 cells as previously described. In brief, H9c2 cells were placed in a recording dish and perfused with a bath solution containing (in mM): 135 tetraethylammonium (TEA)-Cl, 1.8 CaCl2, 2 MgCl2, 10 glucose, and 10 HEPES (pH 7.4, Tris). […] Negative pressure was briefly applied to rupture the membrane and a gigaohm seal was obtained.
H9c2 cells were clamped at −80 mV with step depolarizations (300 ms) from −80 to 0 mV to evoke whole-cell ICa. Voltage clamped cells were equilibrated for 15 min prior to experimentation. Membrane currents were recorded on an Axopatch 700A amplifier (Axon Instruments, Union City, Calif.), filtered at 1 kHz using a low-pass Bessel filter, digitized at 5 kHz and stored on a computer for subsequent analysis with Clampfit 9.0. Following equilibration, ICa was monitored in the presence and absence of KMUP-3 or KMUP-3 amine salt (1, 10, 100 μM). To ascertain whether PKG or ROCK signaling was involved in the KMUP-3-induced decreases in ICa, H9c2 cells were incubated for 15 min with the combination of KMUP-3 or KMUP-3 amine salt (10 μM) and PKG antagonist KT5823 (3 μM) or ROCK inhibitor Y-27632 (50 μM). All electrical recordings were performed at room temperature.

[9] = test system: eNOS; experiment: eNOS expression in neonatal myocytes, Western blotting; format: cell-based, rat; details: L-NAME 100 μM pretreatment
Description: (§3) eNOS/p-NOS and cAMP/cGMP in neonatal myocytes. To determine the role of the NO/cGMP-pathway in heart, neonatal rat myocyte protein was extracted followed by Western blotting to measure the expression of eNOS, phosphorylated eNOS (p-eNOS), cAMP, and cGMP (FIG. 14 A-14 B and FIG. 15 A-15 B). KMUP-3 increased eNOS and p-eNOS in neonatal rat cardiomyocytes and the effect was reduced by L-NAME (100 μM)-pretreatment (FIG. 14A and FIG. 14B). KMUP-3 increased both cAMP and cGMP.
(§4) Protein extraction and Western blotting analysis. Briefly, after incubation with test agents in an organ bath, isolated beating atrium was frozen and pulverized to a fine powder at the temperature of liquid nitrogen. Atrium powders were then homogenized in protein extraction reagent (Pierce Biotechnology, Inc., Rockford, Ill.) by sonication. The samples were sonicated 10 sec three times and centrifuged at 13,000 rpm at 4° C. for 30 min. The protein concentrations of supernatants were determined by using bovine serum albumin as the standard. […] The intensity of the bands was measured by densitometry. eNOS or phosphorylated eNOS were extracted from cell culture of neonatal myocytes, PA ring and aortic ring (2-3 mm) of rats and measured by Western blotting analysis.

[10] = test system: PKG; experiment: PKG expression in beating left atrium, Western blotting; format: cell-based, guinea-pig; details: L-NAME pretreatment
Description: as §2, with “Mass.).” for “Mass.). The membrane was blocked with Tris-buffered saline (TBS; 20 mM Tris and 137 mM NaCl, pH 7.6) containing 0.1% Tween 20 (TTBS) and 5% nonfat milk at room temperature for 1 h, washed with TTBS, and then incubated overnight at 4° C. in the appropriate primary antibody for PKARI, RhoA, ROCKII, p-CIP-17, CPI-17 and PKG1α1β.”
PK, ROCKII and CIP-17 expression and pretreatment of beating left atrium. To examine whether KMUP-3 or KMUP-3 amine salt affects the protein expression in beating atrium, PKA, ROCKII, PKG and phosphorylated CIP-17 was determined by Western blotting, respectively. […]

[11] = test system: phosphorylated eNOS (p-eNOS); experiment: Phosphorylated eNOS expression in neonatal myocytes, Western blotting; format: cell-based, rat; details: L-NAME 100 μM pretreatment
Description: as §3, §4

SMILES: O=[N+]([O-])c1cccc2cn[nH]c12 [7-nitroindazole]
- Effect of combination on left atria contractility increased by KMUP-3 ([1]; KMUP-3 10 μM with 7-nitroindazole 100 μM): reduced
- Effect of pretreatment on the beating frequency decreased by KMUP-3 [2]: up-regulated

SMILES: Cn1c(=O)c2c(ncn2CCN2CCN(c3ccc([N+](=O)[O-])cc3)CC2)n(C)c1=O [KMUP-3-HCl]
- ROCKII protein expression, optical density (%) [3]: 42 ± 2.2%
- PDE-3 protein expression, optical density (%) [4]: 55 ± 2.5%
- PDE-5 protein expression, optical density (%) [5]: 48 ± 1.9%
- eNOS protein expression, optical density (%) [6]: 138 ± 5.2%
- PDE-4 protein expression, optical density (%) [7]: 48 ± 2.1%

SMILES: COC(=O)[C@@]1(OC)C[C@H]2O[C@]1(C)n1c3ccccc3c3c4c(c5c6ccccc6n2c5c31)C(=O)N(C)C4 [KT5823]
- Effect of combination on currents reduced by KMUP-3 [8]: restored

SMILES: COC(=O)[C@@H](N)CCCNC(=N)N[N+](=O)[O-] [L-NAME]
- Effect of pretreatment on KMUP-3-induced positive inotropic activity ([1]; propranolol and Y27632 1 μM, C3 exoenzyme 50 μg/mL, ketanserin 1.0 μM, L-NAME 100 μM): reduced
- Effect of pretreatment on KMUP-3-induced contractility [1]: inhibited
- Effect of pretreatment on KMUP-3-increased eNOS [9]: reduced
- Effect of pretreatment on expression of PKG [10]: reduced
- Effect of pretreatment on KMUP-3-increased p-eNOS [11]: reduced

SMILES: O=c1onc2cnc3ccccc3n12 [ODQ]
- Effect of pretreatment on KMUP-3-induced contractility [1]: inhibited
